Laboratory results: PMC4104029, “Mechanism of Action of Compound-13: An α1-Selective Small Molecule Activator of AMPK” (Chemistry & Biology, 2014)

Columns and labels:
PP2Cα = target: T1, PP2Cα (Homo sapiens, UniProt P35813); test: PP2Cα activity on synthetic peptide substrate; format: biochemical; conditions: synthetic peptide substrate EFLR(pT)SCGS
T1 construct: purchased Division of Signal Transduction Therapy (DSTT, Dundee); host or cells: E. coli
Method: AMPKα1β1γ1 or α2β1γ1 was dephosphorylated in vitro with PP2Cα in 50 mM HEPES pH 7.4, 10 mM MgCl2, 0.1 mM EGTA, 0.03% BRIJ-35, 1 mM DTT, and the indicated compounds for 15 min at 30°C. Mg^2+ was omitted from the negative control. Reactions were terminated by 20-fold dilution and storage on ice. AMPK activity was assayed under standard conditions in the presence of saturating AMP (200 μM). The results are expressed as percentage activity of the negative control. In control experiments, PP2Cα activity was determined in reactions containing 50 mM TES pH 7.4, 0.1 mM EGTA, 25 mM MgCl2, 0.01% BRIJ-35, 0.02% (v/v) 2-mercaptoethanol, and 100 μM EFLR(pT)SCGS (168–176 AMPKα2). Liberated phosphate was determined using malachite green ([Baykov et al., 1988]).
Supplemental Figure Legends:
Figure S1, related to Figures 1-3. […] (A) Heterotrimeric AMPK complexes (10 ng) produced in both Sf9 (Sigma and Signalchem) and E.coli (in our laboratory) were analysed by Western blotting using isoform specific antibodies. […]
Figure S3, related to Figure 2. […] Results are expressed as mean Pi incorporated in nmol.min-1.mg-1 ± SD. […] Results are expressed as fold increase in activity relative to controls in the absence of compound ± SD.
(E) C2 and AMP displace a GST-AMPKγ2 subunit fusion from ATP-γ-Sepharose. […] The presence of eluted AMPKγ2 was analysed by SDS-PAGE and staining with colloidal Coomassie. […]

β1-KO hepatocytes = test: AMPK signaling, western blotting; format: cell-based, mouse; conditions: 1 hr; A769662 100 μM
Method: (§1) Figure 7 C13 Activates Both β1 and β2 Complexes in Mouse Hepatocytes (A) Hepatocytes from WT, AMPKβ1^−/−, and AMPKβ2^−/− mice were incubated with the indicated concentrations of C13 for 1 hr. A769662 (100 μM) was included as a positive control. Lysates were analyzed using western blotting with the indicated antibodies. (B) Mouse hepatocytes from the indicated genotypes were treated with the indicated concentrations of C13 and labeled with [^3H]acetate for 4 hr. Lipogenesis was estimated from the incorporation of acetate into total lipids. Results are expressed as the mean acetate incorporated in micromoles per gram-hour ± SD.

WT and β2-KO hepatocytes = test: AMPK signaling, western blotting; format: cell-based, mouse; conditions: 1 hr; A769662 100 μM
Method: as §1

T1 sequence (P35813 whole entry, species assumed): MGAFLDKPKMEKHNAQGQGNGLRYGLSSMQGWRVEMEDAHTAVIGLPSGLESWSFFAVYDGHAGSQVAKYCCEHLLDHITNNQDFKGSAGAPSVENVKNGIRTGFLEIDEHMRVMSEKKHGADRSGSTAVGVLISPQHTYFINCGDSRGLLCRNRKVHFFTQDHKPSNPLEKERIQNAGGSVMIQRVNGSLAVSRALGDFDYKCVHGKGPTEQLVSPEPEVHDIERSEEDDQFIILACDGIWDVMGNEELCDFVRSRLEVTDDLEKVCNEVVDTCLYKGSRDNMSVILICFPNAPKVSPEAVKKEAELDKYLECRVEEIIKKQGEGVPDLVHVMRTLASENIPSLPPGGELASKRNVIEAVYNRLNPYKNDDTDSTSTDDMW

| Structure (SMILES) | direct effect on PP2Cα activity (PP2Cα) | stimulation of AMPK (Thr172 phosphorylation) (β1-KO hepatocytes) | phosphorylation of Thr172 and ACC, as well as Raptor (WT and β2-KO hepatocytes) |
| --- | --- | --- | --- |
| O=P(O)(O)c1ccc(-c2cc(O)on2)o1 [Compound C2, 5-(5-hydroxyl-isoxazol-3-yl)-furan-2-phosphonic acid] | no direct effect | – | – |
| CC(C)C(=O)OCOP(=O)(OCOC(=O)C(C)C)c1ccc(C2=NOC(=O)C2)o1 [Compound C13] | – | modestly stimulated | robustly stimulated |
